Laboratory results from ChEMBL document CHEMBL3997764 (Medchemcomm, 2016).
≈ marks a conversion by molar mass, not a printed value.

Experiments:
[1] = Terminal half life in BALB/c mouse plasma at 10 mg/kg, po by LC-MS/MS analysis; format: ADME, organism-based; details: read-out: beta t1/2 (converted)
[2] = AUC (0 to infinity) in BALB/c mouse plasma at 10 mg/kg, po up to 24 hrs by LC-MS/MS analysis; format: ADME, organism-based; set-up: dose 10 mg/kg, time infinity, route oral
[3] = AUC (0 to t) in BALB/c mouse plasma at 1 mg/kg, iv up to 24 hrs by LC-MS/MS analysis; format: ADME, organism-based; set-up: dose 1 mg/kg, time < 24 hr, route intravenous
[4] = Thermodynamic aqueous solubility of the compound in water after overnight incubation; format: physicochemical; details: read-out: Therm_solubility
[5] = Cytotoxicity against human LS180 cells assessed as cell viability at 30 uM after 24 hrs by MTT assay relative to control; format: cell-based; details: read-out: Activity
[6] = molecular target: CYP2D6 (Homo sapiens, UniProt P10635); experiment: Inhibition of human recombinant CYP2D6 at 10 uM by fluorescence analysis relative to control; format: ADME
[7] = Cmax in BALB/c mouse plasma at 1 mg/kg, iv up to 24 hrs by LC-MS/MS analysis; format: ADME, organism-based; set-up: dose 1 mg/kg, route intravenous
[8] = AUC (0 to infinity) in BALB/c mouse plasma at 1 mg/kg, iv up to 24 hrs by LC-MS/MS analysis; format: ADME, organism-based; set-up: dose 1 mg/kg, route intravenous, time infinity
[9] = tested on: LS180; experiment: Cytotoxicity against human LS180 cells assessed as reduction in cell viability after 24 hrs by MTT assay; format: cell-based; details: LS180, 24 h
[10] = Volume of distribution in BALB/c mouse at 1 mg/kg, iv up to 24 hrs by LC-MS/MS analysis; format: ADME, organism-based; details: in vivo
[11] = molecular target: T1, Nuclear receptor subfamily 1 group I member 2 (Homo sapiens, UniProt O75469); experiment: Activation of PXR in human LS180 cells assessed as P-gp induction by measuring intracellular accumulation of rhodamine 123 preincubated for 48 hrs followed by rhodamine 123 addition after 40 mins and measured after 90 mins by fluorescence assay; format: cell-based
T1 sequence (O75469 whole entry): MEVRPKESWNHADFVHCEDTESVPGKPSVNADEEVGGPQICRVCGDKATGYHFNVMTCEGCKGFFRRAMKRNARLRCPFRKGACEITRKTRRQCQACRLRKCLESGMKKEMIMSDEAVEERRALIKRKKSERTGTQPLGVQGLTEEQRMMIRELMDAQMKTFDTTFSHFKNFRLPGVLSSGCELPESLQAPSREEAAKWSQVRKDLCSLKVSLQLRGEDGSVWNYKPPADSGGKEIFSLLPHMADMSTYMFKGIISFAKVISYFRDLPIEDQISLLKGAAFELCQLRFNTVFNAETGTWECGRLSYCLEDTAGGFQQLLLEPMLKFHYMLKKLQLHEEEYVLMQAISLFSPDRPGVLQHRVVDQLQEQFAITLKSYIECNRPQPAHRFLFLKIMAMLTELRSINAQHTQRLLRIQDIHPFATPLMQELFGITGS

[12] = molecular target: T1, Nuclear receptor subfamily 1 group I member 2; experiment: Activation of PXR in human LS180 cells assessed as P-gp induction by measuring intracellular accumulation of rhodamine 123 per ug of total protein at 5 uM preincubated for 48 hrs followed by rhodamine 123 addition after 40 mins and measured after 90 mins by fluorescence assay relative to control; format: cell-based; details: 1.5 h
[13] = Thermodynamic aqueous solubility of the compound in simulated intestinal fluid at pH 6.8 after overnight incubation; format: physicochemical; details: read-out: Therm_solubility
[14] = Thermodynamic aqueous solubility of the compound in simulated gastric fluid at pH 1.2 after overnight incubation; format: physicochemical; details: read-out: Therm_solubility
[15] = Clearance in BALB/c mouse plasma at 1 mg/kg, iv up to 24 hrs by LC-MS/MS analysis; format: ADME, organism-based
[16] = Efflux ratio of permeability in human Caco2 cells after 90 mins by LC-MS/MS analysis; format: ADME, cell-based; details: Caco-2
[17] = Oral bioavailability in BALB/c mouse plasma at 10 mg/kg up to 24 hrs by LC-MS/MS analysis; format: ADME, organism-based
[18] = molecular target: CYP2C19 (Homo sapiens, UniProt P33261); experiment: Inhibition of human recombinant CYP2C19 at 10 uM by fluorescence analysis relative to control; format: ADME
[19] = tested on: Mus musculus; experiment: Tlast in BALB/c mouse at 1 mg/kg, iv up to 24 hrs by LC-MS/MS analysis; format: ADME, organism-based; details: in vivo
[20] = molecular target: CYP2C9 (Homo sapiens, UniProt P11712); experiment: Inhibition of human recombinant CYP2C9 at 10 uM by fluorescence analysis relative to control; format: ADME
[21] = Volume of distribution at steady state in BALB/c mouse at 1 mg/kg, iv up to 24 hrs by LC-MS/MS analysis; format: ADME, organism-based; details: in vivo, read-out: Vdss
[22] = AUC (0 to t) in BALB/c mouse plasma at 10 mg/kg, po up to 24 hrs by LC-MS/MS analysis; format: ADME, organism-based; set-up: dose 10 mg/kg, time < 24 hr, route oral
[23] = Thermodynamic aqueous solubility of the compound in phosphate buffered saline at pH 7.4 after overnight incubation; format: physicochemical; details: read-out: Therm_solubility
[24] = Cmax in BALB/c mouse plasma at 10 mg/kg, po up to 24 hrs by LC-MS/MS analysis; format: ADME, organism-based; set-up: dose 10 mg/kg, route oral
[25] = Initial plasma concentration in BALB/c mouse at 1 mg/kg, iv up to 24 hrs by LC-MS/MS analysis; format: ADME, organism-based
[26] = molecular target: T2, P-gp (expression induced through PXR) (Homo sapiens, UniProt O75469); experiment: Activation of PXR in human LS180 cells assessed as induction of P-gp expression at 5 uM by Western blot method relative to control; format: cell-based; details: read-out: FC
T2 sequence (O75469 whole entry): T1 sequence (O75469 whole entry)

[27] = Tmax in BALB/c mouse plasma at 10 mg/kg, po up to 24 hrs by LC-MS/MS analysis; format: ADME, organism-based
[28] = Terminal half life in BALB/c mouse plasma at 1 mg/kg, iv by LC-MS/MS analysis; format: ADME, organism-based; details: read-out: beta t1/2 (converted)
[29] = molecular target: CYP3A4 (Homo sapiens, UniProt P08684); experiment: Inhibition of human recombinant CYP3A4 at 10 uM by fluorescence analysis relative to control; format: ADME
Sequence of CYP3A4 (P08684 whole entry): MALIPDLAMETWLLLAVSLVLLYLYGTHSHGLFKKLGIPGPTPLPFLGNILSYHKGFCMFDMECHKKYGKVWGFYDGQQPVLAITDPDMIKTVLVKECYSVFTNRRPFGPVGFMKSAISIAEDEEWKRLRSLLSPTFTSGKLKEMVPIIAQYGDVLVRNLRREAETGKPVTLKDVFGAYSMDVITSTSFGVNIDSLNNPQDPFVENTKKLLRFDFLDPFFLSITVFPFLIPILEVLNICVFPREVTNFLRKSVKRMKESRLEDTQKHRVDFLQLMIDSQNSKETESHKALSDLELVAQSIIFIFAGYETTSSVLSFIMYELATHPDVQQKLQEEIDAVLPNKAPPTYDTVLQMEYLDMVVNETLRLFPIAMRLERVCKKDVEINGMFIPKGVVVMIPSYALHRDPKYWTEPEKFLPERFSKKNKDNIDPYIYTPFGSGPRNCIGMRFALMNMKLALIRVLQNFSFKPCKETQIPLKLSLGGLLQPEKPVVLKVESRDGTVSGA

Sequence of CYP2D6 (P10635 whole entry): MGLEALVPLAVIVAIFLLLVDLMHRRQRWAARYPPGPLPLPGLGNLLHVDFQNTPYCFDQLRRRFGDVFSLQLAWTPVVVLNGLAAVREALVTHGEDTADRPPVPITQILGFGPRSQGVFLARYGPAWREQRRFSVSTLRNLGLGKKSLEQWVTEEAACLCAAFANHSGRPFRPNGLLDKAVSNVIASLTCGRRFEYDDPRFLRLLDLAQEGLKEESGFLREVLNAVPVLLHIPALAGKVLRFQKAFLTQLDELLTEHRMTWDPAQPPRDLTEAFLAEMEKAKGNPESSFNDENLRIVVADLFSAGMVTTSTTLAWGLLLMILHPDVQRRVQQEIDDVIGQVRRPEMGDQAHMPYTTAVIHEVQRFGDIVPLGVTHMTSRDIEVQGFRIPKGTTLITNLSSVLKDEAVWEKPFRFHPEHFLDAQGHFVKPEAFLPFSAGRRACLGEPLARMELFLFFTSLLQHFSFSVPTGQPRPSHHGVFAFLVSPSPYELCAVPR
Sequence of CYP2C19 (P33261 whole entry): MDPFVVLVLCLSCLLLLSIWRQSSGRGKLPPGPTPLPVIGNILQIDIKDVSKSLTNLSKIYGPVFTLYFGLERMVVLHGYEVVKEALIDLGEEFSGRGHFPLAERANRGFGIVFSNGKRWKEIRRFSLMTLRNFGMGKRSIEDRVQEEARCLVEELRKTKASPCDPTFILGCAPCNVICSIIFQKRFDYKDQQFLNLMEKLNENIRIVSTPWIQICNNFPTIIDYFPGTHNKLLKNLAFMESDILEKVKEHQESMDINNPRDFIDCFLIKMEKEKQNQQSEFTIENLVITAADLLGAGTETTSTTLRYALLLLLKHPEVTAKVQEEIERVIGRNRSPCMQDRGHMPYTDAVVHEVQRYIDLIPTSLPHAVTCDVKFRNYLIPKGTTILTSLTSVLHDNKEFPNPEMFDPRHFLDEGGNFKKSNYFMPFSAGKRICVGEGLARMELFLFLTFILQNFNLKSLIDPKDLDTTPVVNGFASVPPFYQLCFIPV
Sequence of CYP2C9 (P11712 whole entry): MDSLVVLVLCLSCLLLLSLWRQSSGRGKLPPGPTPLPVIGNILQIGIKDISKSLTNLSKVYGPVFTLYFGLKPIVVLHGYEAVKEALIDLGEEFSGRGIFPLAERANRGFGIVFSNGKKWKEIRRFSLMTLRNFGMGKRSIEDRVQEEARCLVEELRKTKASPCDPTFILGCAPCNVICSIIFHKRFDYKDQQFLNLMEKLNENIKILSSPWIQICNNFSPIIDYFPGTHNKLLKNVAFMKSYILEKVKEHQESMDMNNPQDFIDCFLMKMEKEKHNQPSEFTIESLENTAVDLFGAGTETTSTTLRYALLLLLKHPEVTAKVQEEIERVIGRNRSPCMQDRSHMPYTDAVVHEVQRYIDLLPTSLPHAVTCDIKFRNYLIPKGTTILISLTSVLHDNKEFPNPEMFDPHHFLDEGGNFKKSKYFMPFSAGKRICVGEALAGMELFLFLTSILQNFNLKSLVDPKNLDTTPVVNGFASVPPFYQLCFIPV

CCOP(=O)(OCC)C(=Cc1ccccc1)P(=O)(OCC)OCC
half-life [1]: 209 min
AUC(0-inf) [2]: 2070 ng·h/mL
AUC(0-t) at 24 h [3]: 543 ng·h/mL
solubility thermodynamic [4]: > 1500 µg/mL
viability at 24 h, 30 µM [5]: 100%
inhibition at 10 µM [6]: 20%
Cmax [7]: 811 ng/mL
AUC(0-inf) [8]: 549 ng·h/mL
IC50 [9]: > 30 µM
Vd [10]: 1.81 L/kg
EC50 [11]: 0.271 µM
Activity [12]: 58.09%
solubility thermodynamic [13]: 40 µg/mL (≈ 0.106 mM)
solubility thermodynamic [14]: > 1500 µg/mL
clearance [15]: 30.4 mL/min/kg
efflux ratio at 1.5 h [16]: 0.9
bioavailability [17]: 37.6%
inhibition at 10 µM [18]: 0%
Tlast [19]: 4 h
inhibition at 10 µM [20]: 0%
Vd [21]: 1.1 L/kg
AUC(0-t) at 24 h [22]: 1970 ng·h/mL
solubility thermodynamic [23]: > 1500 µg/mL
Cmax [24]: 870 ng/mL
C0 at 24 h [25]: 1150 ng/mL
fold induction at 5 µM [26]: 7.2
Tmax [27]: 30 min
half-life [28]: 41.4 min
inhibition at 10 µM [29]: 19%
